# Measured values taken from ChEMBL document CHEMBL1147043, “Comparative metabolism of radiolabeled muraglitazar in animals and humans by quantitative and qualitative metabolite profiling” (Drug Metab Dispos, 2007).
# Experiments:
# Plasma [1] = test: Biodistribution in orally dosed cynomolgus monkey plasma assessed as O-demethyl muraglitazar glucuronide level after 12 hrs by LC/MS analysis; assay type: ADME, organism-based, Macaca fascicularis; conditions: in vivo, po
# [2] = Metabolic stability in CD1 mouse hepatocytes assessed as O-demethyl muraglitazar glucuronide level by LC/MS analysis relative to control; assay type: ADME, cell-based, Hepatocyte
# [3] = Biodistribution in orally dosed cynomolgus monkey feces assessed as muraglitazar 12-carboxylic acid level by LC/MS analysis; assay type: ADME, organism-based, Macaca fascicularis; conditions: in vivo, po
# Hepatocyte [4] = test: Metabolic stability in human hepatocytes assessed as O-Dealkyl muraglitazar level by LC/MS analysis relative to control; assay type: ADME, cell-based
# Rattus norvegicus [5] = test: Biodistribution in orally dosed Sprague-Dawley rat urine assessed as O-dealkyl muraglitazar level by LC/MS analysis; assay type: ADME, organism-based; conditions: in vivo, po
# [6] = Biodistribution in orally dosed human feces assessed as O-demethyl muraglitazar level by LC/MS analysis; assay type: ADME, organism-based; conditions: in vivo, po
# [7] = Metabolic stability in CD1 mouse hepatocytes assessed as hydroxyl-O-demethyl muraglitazar glucuronide level by LC/MS analysis relative to control; assay type: ADME, cell-based, Hepatocyte
# Hepatocyte [8] = test: Metabolic stability in human hepatocytes assessed as O-dealkyl-O-demethyl muraglitazar level by LC/MS analysis relative to control; assay type: ADME, cell-based
# Plasma [9] = test: Biodistribution in orally dosed Beagle dog plasma assessed as 12-hydroxy-O-demethyl muraglitazar level after 12 hrs by LC/MS analysis; assay type: ADME, organism-based, Canis lupus familiaris; conditions: in vivo, po
# Plasma [10] = test: Biodistribution in orally dosed Beagle dog plasma assessed as O-Dealkyl muraglitazar level after 12 hrs by LC/MS analysis; assay type: ADME, organism-based, Canis lupus familiaris; conditions: in vivo, po
# Plasma [11] = test: Biodistribution in orally dosed Sprague-Dawley rat plasma assessed as O-demethyl muraglitazar glucuronide level after 12 hrs by LC/MS analysis; assay type: ADME, organism-based; conditions: in vivo, po
# [12] = Biodistribution in orally dosed cynomolgus monkey urine assessed as 12-hydroxy muraglitazar level by LC/MS analysis; assay type: ADME, organism-based, Macaca fascicularis; conditions: in vivo, po
# [13] = Fecal excretion rate in orally dosed Sprague-Dawley rat within 48 hrs; assay type: ADME, organism-based; conditions: faeces, po, read-out: Activity
# Rattus norvegicus [14] = test: Biodistribution in orally dosed Sprague-Dawley rat urine assessed as 17-hydroxy muraglitazar level by LC/MS analysis; assay type: ADME, organism-based; conditions: in vivo, po
# Hepatocyte [15] = test: Metabolic stability in Sprague-Dawley rat hepatocytes assessed as 9-hydroxy muraglitazar level by LC/MS analysis relative to control; assay type: ADME, cell-based
# Plasma [16] = test: Biodistribution in orally dosed human plasma assessed as muraglitazar 12-carboxylic acid level after 4 hrs by LC/MS analysis; assay type: ADME, organism-based; conditions: in vivo, po
# [17] = Biodistribution in orally dosed human feces assessed as 17-hydroxy-O-demethyl muraglitazar level by LC/MS analysis; assay type: ADME, organism-based; conditions: in vivo, po
# [18] = Drug concentration in Sprague-Dawley rat feces assessed as recovery of radioactive dose at 11 mg/kg, po after 168 hrs; assay type: ADME, organism-based; design: dose 11 mg/kg, route oral; conditions: in vivo
# Plasma [19] = test: Biodistribution in orally dosed Beagle dog plasma assessed as muraglitazar glucuronide level after 1 hr by LC/MS analysis; assay type: ADME, organism-based, Canis lupus familiaris; conditions: in vivo, po
# Hepatocyte [20] = test: Metabolic stability in human hepatocytes assessed as hydroxyl muraglitazar glucuronide level by LC/MS analysis relative to control; assay type: ADME, cell-based
# Plasma [21] = test: Biodistribution in orally dosed human plasma assessed as muraglitazar glucuronide level after 12 hrs by LC/MS analysis; assay type: ADME, organism-based; conditions: in vivo, po
# Plasma [22] = test: Biodistribution in orally dosed Sprague-Dawley rat plasma assessed as O-demethyl muraglitazar level after 12 hrs by LC/MS analysis; assay type: ADME, organism-based; conditions: in vivo, po
# Plasma [23] = test: Biodistribution in orally dosed cynomolgus monkey plasma assessed as 12,17-dihydroxy muraglitazar level after 1 hr by LC/MS analysis; assay type: ADME, organism-based, Macaca fascicularis; conditions: in vivo, po
# [24] = Biodistribution in orally dosed human urine assessed as 8-hydroxy muraglitazar level by LC/MS analysis; assay type: ADME, organism-based; conditions: in vivo, po
# [25] = Metabolic stability in CD1 mouse hepatocytes assessed as hydroxyl muraglitazar glucuronide level by LC/MS analysis relative to control; assay type: ADME, cell-based, Hepatocyte
# Rattus norvegicus [26] = test: Biodistribution in orally dosed Sprague-Dawley rat feces assessed as 8-hydroxy-O-demethyl muraglitazar level by LC/MS analysis; assay type: ADME, organism-based; conditions: in vivo, po
# Plasma [27] = test: Biodistribution in orally dosed cynomolgus monkey plasma assessed as 17-dihydroxy muraglitazar level after 4 hrs by LC/MS analysis; assay type: ADME, organism-based, Macaca fascicularis; conditions: in vivo, po
# [28] = Biodistribution in orally dosed human feces assessed as 9-hydroxy muraglitazar level by LC/MS analysis; assay type: ADME, organism-based; conditions: in vivo, po
# [29] = Biodistribution in orally dosed Beagle dog feces assessed as 17-hydroxy muraglitazar level by LC/MS analysis; assay type: ADME, organism-based, Canis lupus familiaris; conditions: in vivo, po
# Plasma [30] = test: Biodistribution in orally dosed cynomolgus monkey plasma assessed as 17-dihydroxy muraglitazar level after 12 hrs by LC/MS analysis; assay type: ADME, organism-based, Macaca fascicularis; conditions: in vivo, po
# Hepatocyte [31] = test: Metabolic stability in Sprague-Dawley rat hepatocytes assessed as 8-hydroxy muraglitazar level by LC/MS analysis relative to control; assay type: ADME, cell-based
# Canis familiaris = test: AUC (0 to T) in Beagle dog at 2 mg/kg, po after 4 hrs; assay type: ADME, organism-based, Canis lupus familiaris, Plasma; design: time < 4 hr, dose 2 mg/kg, route oral; conditions: in vivo
# [32] = Biodistribution in orally dosed human urine assessed as 12-hydroxy muraglitazar level by LC/MS analysis; assay type: ADME, organism-based; conditions: in vivo, po
# Plasma [33] = test: Biodistribution in orally dosed human plasma assessed as O-demethyl muraglitazar level after 1 hr by LC/MS analysis; assay type: ADME, organism-based; conditions: in vivo, po
# Plasma [34] = test: Biodistribution in orally dosed Beagle dog plasma assessed as O-demethyl muraglitazar level after 12 hrs by LC/MS analysis; assay type: ADME, organism-based, Canis lupus familiaris; conditions: in vivo, po
# [35] = Drug concentration in bile duct-cannulated CD1 mouse bile assessed as recovery of radioactive dose at 1 mg/kg, po after 24 hrs; assay type: ADME, organism-based; design: dose 1 mg/kg, route oral; conditions: in vivo
# Rattus norvegicus [36] = test: Biodistribution in orally dosed Sprague-Dawley rat feces assessed as 12-hydroxy-O-demethyl muraglitazar level by LC/MS analysis; assay type: ADME, organism-based; conditions: in vivo, po
# [37] = Metabolic stability in CD1 mouse hepatocytes assessed as radioactivity recovaries at 25.6 ug/mL after 4 hrs; assay type: ADME, cell-based, Hepatocyte
# [38] = Metabolic stability in cynomolgus monkey hepatocytes assessed as hydroxyl-O-demethyl muraglitazar glucuronide level by LC/MS analysis relative to control; assay type: ADME, cell-based, Macaca fascicularis, Hepatocyte
# [39] = Metabolic stability in cynomolgus monkey hepatocytes assessed as radioactivity recovaries at 25.6 ug/mL after 4 hrs; assay type: ADME, cell-based, Macaca fascicularis, Hepatocyte
# [40] = Metabolic stability in CD1 mouse hepatocytes assessed as muraglitazar 12-carboxylic acid level by LC/MS analysis relative to control; assay type: ADME, cell-based, Hepatocyte
# Plasma [41] = test: Biodistribution in orally dosed cynomolgus monkey plasma assessed as 12,17-dihydroxy muraglitazar level after 4 hrs by LC/MS analysis; assay type: ADME, organism-based, Macaca fascicularis; conditions: in vivo, po
# [42] = Biodistribution in orally dosed cynomolgus monkey feces assessed as 17-hydroxy-O-demethyl muraglitazar level by LC/MS analysis; assay type: ADME, organism-based, Macaca fascicularis; conditions: in vivo, po
# Hepatocyte [43] = test: Metabolic stability in human hepatocytes assessed as muraglitazar 12-carboxylic acid level by LC/MS analysis relative to control; assay type: ADME, cell-based
structure (smiles),measurement,setting,value
COc1ccc(OC(=O)N(CC(=O)O)Cc2ccc(OCCc3nc(-c4ccccc4)oc3C)cc2)cc1 [MURAGLITAZAR],Drug uptake,Plasma [1],0.4%
same,Drug uptake,[2],< 0.2%
same,Drug uptake,[3],1.61%
same,Drug uptake,Hepatocyte [4],5.7%
same,Drug uptake,Rattus norvegicus [5],0.22%
same,Drug uptake,[6],3.33%
same,Drug uptake,[7],< 0.2%
same,Drug uptake,Hepatocyte [8],< 0.2%
same,Drug uptake,Plasma [9],15%
same,Drug uptake,Plasma [10],9%
same,Drug uptake,Plasma [11],0.4%
same,Drug uptake,[12],0.04%
same,dose excreted at 48 h,[13],95%
same,Drug uptake,Rattus norvegicus [14],< 0.01%
same,Drug uptake,Hepatocyte [15],0.3%
same,Drug uptake,Plasma [16],0.2%
same,Drug uptake,[17],1.48%
same,Drug uptake,[18],87.7%
same,Drug uptake,Plasma [19],< 0.05%
same,Drug uptake,Hepatocyte [20],0.2%
same,Drug uptake,Plasma [21],2.5%
same,Drug uptake,Plasma [22],3.5%
same,Drug uptake,Plasma [23],1%
same,Drug uptake,[24],0.03%
same,Drug uptake,[25],2.7%
same,Drug uptake,Rattus norvegicus [26],9.65%
same,Drug uptake,Plasma [27],16.2%
same,Drug uptake,[28],1.6%
same,Drug uptake,[29],1.78%
same,Drug uptake,Plasma [30],21.4%
same,Drug uptake,Hepatocyte [31],< 0.2%
same,AUC,Canis familiaris,1.1 ugequiv.h/ml
same,Drug uptake,[32],0.03%
same,Drug uptake,Plasma [33],0.2%
same,Drug uptake,Plasma [34],9%
same,Drug uptake,[35],75%
same,Drug uptake,Rattus norvegicus [36],2.63%
same,Stability,[37],95.6%
same,Drug uptake,[38],< 0.2%
same,Stability,[39],99.2%
same,Drug uptake,[40],0.8%
same,Drug uptake,Plasma [41],1.5%
same,Drug uptake,[42],3.22%
same,Drug uptake,Hepatocyte [43],0.9%
